“Also recorded” adds a separate entry of the source.
Tests used:
[1] = system: Pkd1^flox/flox; Pax8rtTA; tet-OCre mice; assay: Adult ADPKD model, complete loss of function (doxycycline-induced Pkd1 deletion); type: in vivo, mouse; conditions: for KW/BW ratio: p=0.03
Text: FIGS. 19A-19B: Ire1α inhibitor improves disease progression in an adult ADPKD model. Adult onset model with complete loss of function (Pkd1fl/fl;Pax8rtTA;tet-OCre). […]
The present study first tested toyocamycin in Pkd1^flox/flox; Pax8rtTA; tet-OCre mice. […] […] The present study recapitulated these findings in another slow progressing adult ADPKD model. A compound mutant model with a floxed Pkd1 allele in trans with a human pathogenic hR2220W (mR2216W) missense mutation that causes defects in PC1 GPS cleavage and trafficking was used. Pkd1^R2216W/flox line was crossed with either Pkhd1-Cre or Pax8rtTA; Tet-OCre to generate neonatal or adult doxycycline inducible lines respectively.

[2] = system: Pkd1^R2216W/flox; Pkhd1-Cre mice; assay: Neonatal ADPKD model with Pkd1 R2216W missense mutation in trans with floxed allele; type: in vivo, mouse
Protocol: Effect of toyocamycin were investigated in a relevant ADPKD model. For this a mouse model was constructed with a human Pkd1 missense mutation (R2216W) in trans with a floxed allele on a Pkhd1-Cre and Pax8-rtTA; tet-OCre background.
(§1) The present study first tested toyocamycin in Pkd1^flox/flox; Pax8rtTA; tet-OCre mice. Animals were given doxycycline water between P28 to P42 then treatment was started from week 6 until week 18 (0.5 mg/kg; once every 2 weeks; 6 i.p. injections). […] The present study recapitulated these findings in another slow progressing adult ADPKD model. A compound mutant model with a floxed Pkd1 allele in trans with a human pathogenic hR2220W (mR2216W) missense mutation that causes defects in PC1 GPS cleavage and trafficking was used. Pkd1^R2216W/flox line was crossed with either Pkhd1-Cre or Pax8rtTA; Tet-OCre to generate neonatal or adult doxycycline inducible lines respectively.

[3] = system: Pkd1^R2216W/flox; Pax8rtTA; tet-OCre mice; assay: Adult ADPKD model with Pkd1 R2216W missense mutation in trans with floxed allele; type: in vivo, mouse
Protocol: In order to examine whether this drug leads to disease modifying effects in the adult counterpart of this model, Pkd1^RW/fl; Pax8^rtTA; Tet-OCre mice were generated. In this mice the Cre recombinase is turned on throughout the nephron (except for the PT S3 segment) using a doxycycline inducible system. The mice received doxycycline in the drinking water from P28-P42to induce Cre and inactivate Pkd1 and were then injected with toyocamycin once every 2weeks starting at 6 weeks of age.
as §1
Finally, the present study examined the status of apoptosis in kidneys isolated from Pkd1^R2216W/flox; Pax8rtTA; tet-OCre mice treated with toyocamycin between week 12 to 18 (FIG. 34). […] Finally, the present study set forth to examine whether the effect seen in mice can be recapitulated with a relevant cell line model. Although cell line models for PKD are average mimics of the animal models, they do provide opportunities for a closer look at mechanisms of genotype-phenotype relationships in the context of programmed cell death. The present study used a previously described cell line i.e. PN24; Pkd1^−/−) as the starting point for inactivation of XBP1 via CRISPR/Cas9. At baseline, no differences in cell viability among the 3 genotypes i.e. Pkd1^het, Pkd1^−/−, and Pkd1/XBP1 DKO were observed. The present study then compared the response of Pkd1^+/−, Pkd1^−/−, and Pkd1/XBP1 DKO cells to a sensitized background induced by treatment with 11β-dichloro, an ROS inducer.

cystic cell = assay: Cystic cell viability (FIGS. 18A-18B); type: cell-based
PKD mice = PKD mice / preclinical models, model not further specified; type: in vivo, mouse
Protocol: FIGS. 22A-22C: Irela inhibitor prevents cyst growth in preclinical models.
FIG. 36: Gene inactivation between P28 and P42. Treatment (0.5 mg/kg; 1×/2 wks) between 6-18 weeks of age.
The basal activity of spliced active XBP1s appears to be a protective survival factor for PC1-null cells that form cysts. […] Thus, specific pharmacological inhibition of the endoribonuclease activity of IRE1α, by inhibiting its ability to splice XBP1 to active XBP1s, should be beneficial in slowing cyst growth in ADPKD. This hypothesis was tested pharmacologically by inhibiting IRE1α endoribonuclease activity using toyocamycin, which is a potent IRE1α endoribonuclease inhibitor.

[4] = molecular target: Ire1α endoribonuclease activity (Homo sapiens, UniProt O75460); conditions: cited from earlier work
Ire1α endoribonuclease activity, sequence (O75460 19-977): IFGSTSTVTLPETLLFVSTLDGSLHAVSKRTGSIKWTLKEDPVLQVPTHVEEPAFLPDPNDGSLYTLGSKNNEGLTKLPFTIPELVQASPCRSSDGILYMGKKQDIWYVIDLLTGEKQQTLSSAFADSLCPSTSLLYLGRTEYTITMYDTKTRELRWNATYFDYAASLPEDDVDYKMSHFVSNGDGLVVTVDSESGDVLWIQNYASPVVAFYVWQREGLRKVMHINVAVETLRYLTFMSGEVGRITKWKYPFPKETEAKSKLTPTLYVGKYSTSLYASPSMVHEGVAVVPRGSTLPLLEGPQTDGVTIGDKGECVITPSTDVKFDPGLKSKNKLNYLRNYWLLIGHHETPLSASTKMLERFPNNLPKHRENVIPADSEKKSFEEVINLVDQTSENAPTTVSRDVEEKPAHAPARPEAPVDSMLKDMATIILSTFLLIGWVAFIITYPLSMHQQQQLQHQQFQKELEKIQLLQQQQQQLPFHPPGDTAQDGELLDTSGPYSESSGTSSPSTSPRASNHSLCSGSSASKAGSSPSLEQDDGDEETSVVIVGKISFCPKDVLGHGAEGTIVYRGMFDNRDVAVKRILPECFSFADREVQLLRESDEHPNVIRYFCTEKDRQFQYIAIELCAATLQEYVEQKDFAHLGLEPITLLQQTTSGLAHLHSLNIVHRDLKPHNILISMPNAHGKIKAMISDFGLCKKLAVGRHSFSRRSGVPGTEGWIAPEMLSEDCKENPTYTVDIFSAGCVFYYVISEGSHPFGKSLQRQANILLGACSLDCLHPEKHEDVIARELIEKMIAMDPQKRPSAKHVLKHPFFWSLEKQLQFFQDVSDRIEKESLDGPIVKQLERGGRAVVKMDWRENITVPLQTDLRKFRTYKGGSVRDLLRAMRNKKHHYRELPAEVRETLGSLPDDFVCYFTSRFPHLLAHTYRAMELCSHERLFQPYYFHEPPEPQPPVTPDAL

IRE1α kinase activity = IRE1α kinase activity (Homo sapiens, UniProt O75460); conditions: Ri, et al., 2012; cited from earlier work
IRE1α kinase activity, sequence (O75460 19-977): as above

nucleotide incorporation = conditions: up to concentrations of 10 uM; cited from earlier work
[5] = Phase 1 trial; no changes in Hb, WBC, Pt, AP, SGOT and BUN; cited from earlier work
[6] = treatment from p9 to p16 (once/week), vs vehicle treated animals
[7] = 0.5 mg/kg i.p. once every 2 weeks, between week 6 and 18 (6 doses), p<0.001
[8] = mouse, in vivo, listed as Irela inhibitor

Compound: N#Cc1cn([C@@H]2O[C@H](CO)C(O)C2O)c2ncnc(N)c12 (stereo partly drawn) [toyocamycin, 4-Aminopyrrolo[2,3-d]pyrimidine-5-carbonitrile 7-(β-D-ribofuranoside)]
- liver toxicity ([1]; 0.5 mg/kg IP, 1×/week, from 13 wks until 18 wks): does not cause liver toxicity
- KW/BW ratio ([1]; 0.5 mg/kg every 2 weeks between 12 and 18, FIGS. 31A-31B): decrease
- KW/BW ratio ([1]; 0.5 mg/kg i.p. once every 2 weeks, week 6 until week 18, vs untreated mice): significant decrease
- disease progression ([1]; treatment from 6 to 18 weeks, started immediately after gene inactivation): improves
- disease at P16 ([2]; 0.5 mg/kg at P10): significantly improved disease
- KW/BW ratio ([2]; 1 dose 0.5 mg/kg i.p. at P10, assessed at P16, p<0.001): dramatic improvement
- BUN ([2]; 1 dose 0.5 mg/kg i.p. at P10, assessed at P16, p<0.05): dramatic improvement
- cystic phenotype (morphological and functional parameters) ([2]; FIG. 6): dramatic improvement
- BUN (marker of kidney function) [2, 6]: dramatic decrease
- KW/BW ratio [2, 6]: dramatic decrease
- BUN [3, 7]: almost a complete rescue; also recorded: dramatic improvement
- KW/BW ratio [3, 7]: almost a complete rescue; also recorded: dramatic improvement
- cyst growth ([3]; 0.5 mg/kg, 1×/2 wks between 6-18 weeks of age): prevents
- apoptosis of cyst lining epithelia (TUNEL) ([3]; 0.5 mg/kg, 1×/2 wks, listed as Ire1α inhibitor): causes apoptosis
- disease progression ([3]; once every 2 weeks starting at 6 weeks of age, vs vehicle treated animals): almost complete inhibition
- effect in cells where Cre is not expressed (selectivity) ([3]; preliminary analysis, data not shown): restricted to Pkd1 null segments
- apoptosis in kidneys (TUNEL) ([3]; treated between week 12 to 18, proximal tubules marked by LTA): specific TUNEL-positive signal in cyst lining cells
- levels of spliced XBP1 (qPCR) ([3]; treated vs. untreated mice, target engagement): lower; also recorded: decreased expression
- cystic phenotype (morphological and functional parameters) ([3]; treatment from 6 weeks until 18 weeks age, FIG. 7): dramatic improvement
- body weight ([3]; untreated vs. treated animals, once every 2 weeks, week 6 to 18): did not differ
- cystic cell viability (cystic cell): inhibits
- dependence of the effect on Ire1 (PKD mice; FIG. 36, 0.5 mg/kg, 1×/2 wks between 6-18 weeks of age): depends on the presence of Ire1
- apoptosis in cyst cells with PC1 mutation (PKD mice; FIGS. 22A-22C): Enhanced apoptosis
- systemic toxicity (body weight) (PKD mice; FIGS. 22A-22C): No apparent systemic toxicity
- collagen deposition (PKD mice; FIGS. 24A-24B): prevents
- BUN (kidney function) (PKD mice; mouse, in vivo): reduction
- kidney to body weight ratio (PKD mice; mouse, in vivo): dramatic reduction
- serum creatinine (PKD mice; mouse, in vivo): reduction
- BUN (kidney function) (PKD mice; [8]): Normalized kidney function
- kidney to body weight ratio (PKD mice; [8]): Reduced cyst growth
- inhibition of IRE1α endoribonuclease activity ([4]; Ri, et al., 2012): potent inhibitor
- IC50 ([4]; in vitro, read-out: IC50, inhibition of Ire1α endoribonuclease activity): ~100 nM
- inhibition of IRE1α kinase activity (IRE1α kinase activity): does not inhibit
- impact on nucleotide incorporation (nucleotide incorporation): without any impact
- systemic side effects [5]: no apparent systemic side effects

Source: US20250082663A1, “COMPOUNDS AND METHODS FOR TREATING OR […] DOMINANT POLYCYSTIC KIDNEY DISEASE (ADPKD), AUTOSOMAL DOMINANT […] DISEASE (ADPLD) AND/OR AUTOSOMAL RECESSIVE POLYCYSTIC KIDNEY DISEASE (ARPKD)” (YALE UNIVERSITY, priority 2021, published 2025)
